# Tested on: JeKo-1
# Assay: Antiproliferative activity against human JeKo-1 cells assessed as reduction in cell viability by Cell-Titer Glo luminescent assay
# Type: functional, cell-based
row,Compound,EC50 [nM]
1,CC[C@@]1(O)C(=O)OCc2c1cc1n(c2=O)Cc2c-1nc1cc(F)c(C)c3c1c2[C@@H](NC(=O)C(C)(O)CO)CC3 (stereo partly specified),1.2
2,CC[C@@]1(O)C(=O)OCc2c1cc1n(c2=O)Cc2c-1nc1cc(F)c(C)c3c1c2[C@@H](NC(=O)C(F)(F)C(C)O)CC3 (stereo partly specified),1.6
3,CC[C@@]1(O)C(=O)OCc2c1cc1n(c2=O)Cc2c-1nc1cc(F)c(C)c3c1c2[C@@H](NC(=O)[C@H](O)CCO)CC3,1.4
4,CC[C@@]1(O)C(=O)OCc2c1cc1n(c2=O)Cc2c-1nc1cc(F)c(C)c3c1c2[C@@H](NC(=O)C(C)(N)C(F)(F)F)CC3 (stereo partly specified),1.6
5,CC[C@@]1(O)C(=O)OCc2c1cc1n(c2=O)Cc2c-1nc1cc(F)c(C)c3c1c2[C@@H](NC(=O)[C@@H](O)CO)CC3,1.4
6,CC[C@@]1(O)C(=O)OCc2c1cc1n(c2=O)Cc2c-1nc1cc(F)c(C)c3c1c2[C@@H](NC(=O)C(F)CO)CC3 (stereo partly specified),1.5

# From ChEMBL document CHEMBL5634199, “Novel Exatecan-Derived Topoisomerase-1 Inhibitors for Treating Cancer” (ACS Med Chem Lett, 2024)
